Laboratory results: the NIST ThermoML archive (doi:10.1016/j.fluid.2019.112241)
Where “and” joins values, the source holds several entries; their conditions need not be identical. Equal values may be shown once.

Conditions: Liquid, Transpiration method

CCCCCCN(CCCCCC)C(C)=O [N,N-dihexylacetamide]
Conditions	vapor or sublimation pressure [kPa]
319.4 K	0.0004
322.4 K	0.00053
325.5 K	0.00071
328.4 K	0.00091
329.2 K	0.00098
331.5 K	0.00123
332.4 K	0.0013
332.5 K	0.00136
335.5 K	0.0017
338.5 K	0.00228
342.2 K	0.00302
346.4 K	0.0043
349.5 K	0.0056
350.4 K	0.00612
353.3 K	0.00738
353.4 K	0.00736
356.3 K	0.00918
359.2 K	0.01148
360.3 K	0.01247
362.3 K	0.01466
364.2 K	0.01684

CC(=O)N(C)C [N,N-dimethylethanamide]
Conditions	vapor or sublimation pressure
273.3 K	0.03543 kPa and 0.03607 kPa and 0.035 kPa
274.7 K	0.03924 kPa
275.9 K	0.04222 kPa
276.5 K	0.04528 kPa
276.9 K	0.04668 kPa
277.3 K	0.05063 kPa
278.2 K	0.05175 kPa
278.6 K	0.05303 kPa
279.7 K	0.058 kPa
281.3 K	0.06713 kPa and 0.07108 kPa
281.4 K	0.06481 kPa
281.9 K	0.06864 kPa
282.4 K	0.07295 kPa
283 K	0.07741 kPa
285.3 K	0.0977 kPa
285.8 K	0.09266 kPa
286.4 K	0.09668 kPa
287.3 K	0.1021 kPa
288.2 K	0.1121 kPa
288.3 K	0.1147 kPa
289.3 K	0.1307 kPa
290.2 K	0.1314 kPa
290.8 K	0.1301 kPa
291.2 K	0.1351 kPa
291.3 K	0.1465 kPa
291.8 K	0.1543 kPa
293.2 K	0.1571 kPa
293.3 K	0.1763 kPa
294.2 K	0.1744 kPa
296.2 K	0.2041 kPa
296.3 K	0.2 kPa
297.2 K	0.2169 kPa
297.3 K	0.2291 kPa
298.1 K	0.2275 kPa
298.2 K	0.2301 kPa
300.2 K	0.2612 kPa
300.7 K	0.2666 kPa and 0.2829 kPa
301.3 K	0.2983 kPa
302.2 K	0.3174 kPa
302.7 K	0.3279 kPa
303 K	0.3058 kPa
303.2 K	0.3248 kPa
304.7 K	0.3758 kPa
305.2 K	0.3538 kPa and 0.3944 kPa
305.6 K	0.3795 kPa
308 K	0.4422 kPa
308.1 K	0.4305 kPa
310.6 K	0.5041 kPa
313.1 K	0.6025 kPa
313.2 K	0.6035 kPa
315.7 K	0.711 kPa
316.4 K	0.7274 kPa
318.2 K	0.8426 kPa
320.8 K	0.9968 kPa
323.2 K	1.115 kPa
323.3 K	1.128 kPa
325.8 K	1.285 kPa
328.3 K	1.481 kPa

CCCCN(CCCC)C(C)=O [N,N-dibutylacetamide]
Conditions	vapor or sublimation pressure
291.8 K	0.0013 kPa
298.8 K	0.00247 kPa
300.9 K	0.00292 kPa
301.8 K	0.00324 kPa
303.9 K	0.00402 kPa
306.6 K	0.00505 kPa
306.7 K	0.00514 kPa
308.8 K	0.00635 kPa
312.5 K	0.00844 kPa
315.7 K	0.0107 kPa
317.5 K	0.01304 kPa
320.4 K	0.01631 kPa
320.7 K	0.01642 kPa
320.8 K	0.01653 kPa
322.6 K	0.01907 kPa
323.6 K	0.02074 kPa
325.6 K	0.02381 kPa
327.2 K	0.02708 kPa
327.6 K	0.0289 kPa
330.6 K	0.03472 kPa and 0.03551 kPa
333.3 K	0.04451 kPa
334.8 K	0.04701 kPa
335.7 K	0.05254 kPa
337.5 K	0.05938 kPa
340.7 K	0.0733 kPa
343.6 K	0.09061 kPa

CCN(CC)C(C)=O [N,N-diethylacetamide]
Conditions	vapor or sublimation pressure
293.2 K	0.05427 kPa
295.7 K	0.06498 kPa
298.1 K	0.07907 kPa
300.7 K	0.09611 kPa
303.3 K	0.1134 kPa
308.2 K	0.1595 kPa and 0.1564 kPa
310.6 K	0.1826 kPa
313.1 K	0.218 kPa
313.2 K	0.22 kPa
318.2 K	0.3145 kPa and 0.3097 kPa
323.1 K	0.4179 kPa
323.3 K	0.4212 kPa
325.7 K	0.4988 kPa
328.2 K	0.5921 kPa and 0.5695 kPa
330.7 K	0.6838 kPa
333.1 K	0.8078 kPa
333.2 K	0.771 kPa
335.7 K	0.882 kPa
338.3 K	1.032 kPa
